Assay results from publication PMC6934184, “Selective DNA-PKcs inhibition extends the therapeutic index of localized radiotherapy and chemotherapy” (The Journal of Clinical Investigation, 2019).

Target: T1, INSRR (IRR) (Homo sapiens, UniProt P14616)
T1 construct: purchased Thermo Fisher Scientific (Life Technologies) SelectScreen
Assay: SelectScreen Z'LYTE
Format: biochemical
Outline: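 Percent values come from Thermo SelectScreen profiling of NU5455, combining activity and binding assays. CSF1R was run in Z'LYTE format at Km app ATP, and CAMK1 in Adapta format with ATP listed at 10.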

T1 sequence (P14616 27-1297): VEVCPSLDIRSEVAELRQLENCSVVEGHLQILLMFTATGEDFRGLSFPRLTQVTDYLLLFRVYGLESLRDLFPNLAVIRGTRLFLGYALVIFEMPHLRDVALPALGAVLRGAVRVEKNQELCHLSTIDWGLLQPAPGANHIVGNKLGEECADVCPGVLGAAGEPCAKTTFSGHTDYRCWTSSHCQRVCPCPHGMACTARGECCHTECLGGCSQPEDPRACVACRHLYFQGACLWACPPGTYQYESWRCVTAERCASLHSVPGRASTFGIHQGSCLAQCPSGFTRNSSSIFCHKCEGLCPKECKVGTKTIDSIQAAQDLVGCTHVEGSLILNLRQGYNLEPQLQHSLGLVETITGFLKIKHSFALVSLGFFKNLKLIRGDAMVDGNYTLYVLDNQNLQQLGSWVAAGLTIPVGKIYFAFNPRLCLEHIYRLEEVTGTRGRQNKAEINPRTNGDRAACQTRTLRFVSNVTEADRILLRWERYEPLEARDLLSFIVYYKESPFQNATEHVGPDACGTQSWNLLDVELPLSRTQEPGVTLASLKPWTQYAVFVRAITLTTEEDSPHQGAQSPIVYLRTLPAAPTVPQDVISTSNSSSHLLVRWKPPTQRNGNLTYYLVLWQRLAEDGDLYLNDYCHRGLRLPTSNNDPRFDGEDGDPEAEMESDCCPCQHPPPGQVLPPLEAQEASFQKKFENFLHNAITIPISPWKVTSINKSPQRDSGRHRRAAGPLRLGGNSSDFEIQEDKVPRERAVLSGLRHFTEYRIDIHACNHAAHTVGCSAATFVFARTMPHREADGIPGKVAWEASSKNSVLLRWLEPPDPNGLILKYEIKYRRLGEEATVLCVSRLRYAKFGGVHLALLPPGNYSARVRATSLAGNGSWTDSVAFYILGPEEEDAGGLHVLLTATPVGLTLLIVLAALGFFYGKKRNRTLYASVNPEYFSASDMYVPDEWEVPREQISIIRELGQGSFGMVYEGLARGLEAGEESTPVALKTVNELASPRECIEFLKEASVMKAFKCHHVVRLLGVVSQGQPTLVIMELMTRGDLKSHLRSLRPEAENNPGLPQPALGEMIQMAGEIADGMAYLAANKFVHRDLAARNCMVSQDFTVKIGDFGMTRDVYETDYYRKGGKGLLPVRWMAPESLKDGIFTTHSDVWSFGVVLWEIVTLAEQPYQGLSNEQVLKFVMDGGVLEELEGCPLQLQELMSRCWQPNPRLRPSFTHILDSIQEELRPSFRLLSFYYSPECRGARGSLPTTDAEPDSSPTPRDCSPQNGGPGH

**Q.** For `CN(C(=O)CN1CCOCC1)c1ccc2sc3c(-c4cccc5c(=O)cc(N6CC7CCC(C6)O7)oc45)cccc3c2c1` [NU5455], which inhibition at 1 µM is on record?
**A.** 14.1%
